Patent US20130137126A1, “USE OF A BETA-G[…] FOR THE DETECTION AND/OR IDENTIFICATION OF C. DIFFICILE” (BIOMERIEUX, priority 2010, published 2013)

How the values were obtained:
Type in all cases: cell-based
Clostridium difficile [1] = test: Activating effect of Ar-beta-glucoside compounds on beta-glucosidase activity, colony coloration on agar media with CHE-beta-glucoside; conditions: equimolar compounds with CHE-beta-glucoside 0.3 g/l; 24 h
Experimental: Six strains of Clostridium difficile were tested on the media comprising a compound which could act as a beta-glucosidase activator in these strains. That of the strain bearing the reference 08 01 091 is 056. The compounds tested as beta-glucosidase activators are as follows: • Arbutin; • O-methyl b-glucoside; • Cellobiose; • Salicin; • 4 Aminophenyl-b-glucoside; • 4-methyl-umbelliferone-b-glucoside; • aesculin.
They were tested at concentrations which make it possible to have the same molarity for each of the compounds.
The media used are prepared on the basis of the C. difficile chromID® medium indicated supra, for example 1, to which is added the CHE-beta-glucoside substrate at 0.3 g/l and, respectively, one of the compounds according to the following table:
(§1) The media are distributed into Petri dishes.
(§2) The seeding is performed from 48 h pre-cultures at 37° C. in anaerobiosis.
(§3) A suspension in physiological water at 0.5 McF is carried out and then the strains are seeded with the 10 μl calibrated loop.
Readings are performed after 24 h of incubation at 37° C. and in anaerobiosis.
(§4) Reading scale of the enzymatic activity/ coloration • 0=no activity • 0.5=very pale coloration • 1=clear low-intensity coloration • 2=distinct medium-intensity coloration, • 3=presence of an intense coloration, • 4=presence of a very intense coloration.
(§5) The coloration obtained with this substrate is grey up to an intensity of 1, and black for the other values.

Clostridium difficile [2] = test: Activating effect of arbutin on a beta-glucosidase substrate (CHE-beta-glucoside), colony coloration on agar media; conditions: 24 h
Experimental: Eight strains of Clostridium difficile, from the Applicant's collection, were tested on media comprising arbutin at different concentrations with or without CHE-beta-glucoside present. The reading of the dishes is then carried out at 24 h. The media is made up as follows:
C. difficile ChromID® base common to all of the media:
Then addition of arbutin and/or CHE-beta-glucoside, according to the media:
as §1, §2, §3
Readings are performed after 24 h of incubation at 37° C. in anaerobiosis.
as §4, §5

Clostridium difficile [3] = test: Activating effect of arbutin on various beta-glucosidase substrates, colony coloration on agar media; conditions: substrates DHF-, alizarin- and 3HF-beta-glucoside; 24 h and 48 h
Experimental: The eight strains of Clostridium difficile tested in Example 1 were tested on media comprising DHF-beta-glucoside (media A), alizarin-beta-glucoside (media B) or 3HF-beta-glucoside (Media C) and an increasing concentration of arbutin.
The reading of the dishes is then carried out at 24 h and 48 h.
The media used are prepared on the basis of the C. difficile chromID® medium indicated supra, for example 1, to which arbutin is added according to the following table:
According to the substrates, the media are therefore as follows: • DHF-beta-glucoside at 400 mg/L (media TA, 1A, 2A and 3A) • Alizarin-beta-glucoside at 50 mg/L (media TB, 1 B, 2B and 3B) • 3HF-beta-glucoside at 300 mg/L (media TC, 1C, 2C and 3C)
as §1, §2, §3
Readings are performed after 24 h and 48 h of incubation at 37° C. in anaerobiosis.
as §4

SMILES | activating effect on beta-glucosidase of Clostridium difficile (Clostridium difficile [1]) | activation of the beta-glucosidase (intensification of coloration, grey to black) (Clostridium difficile [2]; arbutin added in the presence of CHE-beta-glucoside) | coloration of the colonies (Clostridium difficile [2]; arbutin alone, without CHE-beta-glucoside) | coloration intensity in the presence of arbutin (Clostridium difficile [3])
CO[C@@H]1O[C@H](CO)[C@@H](O)[C@H](O)[C@H]1O [O-methyl-beta-glucoside, reference compound] | do not have an activating effect | – | – | –
Nc1ccc(O[C@@H]2O[C@H](CO)[C@@H](O)[C@H](O)[C@H]2O)cc1 [4-Aminophenyl-beta-glucoside] | observed activation of beta-glucosidase | – | – | –
O=c1ccc2cc(O[C@@H]3O[C@H](CO)[C@@H](O)[C@H](O)[C@H]3O)c(O)cc2o1 [aesculin, 6,7-dihydroxy-coumarin-beta-glucoside] | observed activation of beta-glucosidase | – | – | –
O=C[C@H](O)[C@@H](O)[C@H](O[C@@H]1O[C@H](CO)[C@@H](O)[C@H](O)[C@H]1O)[C@H](O)CO [cellobiose, 4-O-beta-D-glucopyranosyl-D-glucose, reference compound] | do not have an activating effect | – | – | –
OC[C@H]1O[C@@H](Oc2ccc(O)cc2)[C@H](O)[C@@H](O)[C@@H]1O [Arbutin, hydroquinone-beta-D-glucoside] | observed activation of beta-glucosidase | an activation of the beta-glucosidase is noted | does not allow coloration of the colonies to be obtained | an improvement in the coloration intensity is noted regardless of the substrate used
OCc1ccccc1O[C@@H]1O[C@H](CO)[C@@H](O)[C@H](O)[C@H]1O [salicin, 2-(hydroxymethyl)-phenyl-beta-D-glucoside] | observed activation of beta-glucosidase | – | – | –
